Data on 29 molecules can be found in patent publication US11446287B2, “Compounds and methods for EP300 or CBP modulation and indications therefor” (Opna Immuno-Oncology SA, priority 2019, dated 2022).

This test concerns the target T1, Recombinant human CBP containing the bromodomain (CBP-BD (1043-1159)) (Homo sapiens, UniProt Q92793).
T1 construct: Recombinant human CBP bromodomain (CBP-BD (1043-1159)); made in house; host or cells: E. coli BL21-CodonPlus (DE3), modified pET vector
Kind of test: CBP Alphascreen binding assay. Particulars: read-out: CREBBP (CBP) IC50. An outline of the steps: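 Buffer: 50 mM HEPES pH 7.5, 50 mM NaCl, 0.01% BSA, 0.01% Triton X-100, 2 mM DTT. The signal was normalised to plate controls and fitted with a four-parameter curve to give IC50.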
(In general: In Alpha technology, singlet oxygen from a donor bead excites a nearby acceptor bead.)

SMILES strings stand for the structures.

T1 sequence (Q92793 1081-1197): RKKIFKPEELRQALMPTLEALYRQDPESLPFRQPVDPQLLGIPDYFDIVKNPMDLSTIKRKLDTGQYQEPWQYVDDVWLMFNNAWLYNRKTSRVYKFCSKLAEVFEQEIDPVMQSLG

The term IC50 denotes the concentration that gives 50% inhibition. As to `CCOC(=O)c1cc(-c2cn(-c3ccc(F)cc3F)c3ncc(-c4c(C)noc4C)cc23)c(OCC)cc1O` [P-0248, ethyl 5-(1-(2,4-difluorophenyl)-5-(3,5-dimethylisoxazol-4-yl)-1H-pyrrolo[2,3-b]pyridin-3-yl)-4-ethoxy-2-hydroxybenzoate], the IC50 lay within 8 to 1000 µM.

For the molecule `CCOc1cc(O)c(C(=O)O)cc1-c1cn(-c2ccc(F)cc2F)c2ncc(-c3c(C)noc3C)cc12` [P-0249, 5-(1-(2,4-difluorophenyl)-5-(3,5-dimethylisoxazol-4-yl)-1H-pyrrolo[2,3-b]pyridin-3-yl)-4-ethoxy-2-hydroxybenzoic acid], the IC50 is 0.0001 to 1 µM.

With `CCOc1cc(OC)c(C(=O)O)cc1-c1cn(-c2ccc(F)cc2F)c2ncc(-c3c(C)noc3C)cc12` [P-0250, 5-(1-(2,4-difluorophenyl)-5-(3,5-dimethylisoxazol-4-yl)-1H-pyrrolo[2,3-b]pyridin-3-yl)-4-ethoxy-2-methoxybenzoic acid], the IC50 is 0.0001 to 1 µM.

Regarding `Cc1noc(C)c1-c1cnc2c(c1)c(-c1ccc(C(=O)O)cc1OC(F)(F)F)cn2-c1cnccc1F` [P-0251, 4-(5-(3,5-dimethylisoxazol-4-yl)-1-(4-fluoropyridin-3-yl)-1H-pyrrolo[2,3-b]pyridin-3-yl)-3-(trifluoromethoxy)benzoic acid], the 50% inhibitory concentration (IC50) was in the range of 0.0001 to 1 µM.

`Cc1noc(C)c1-c1cnc2c(c1)c(-c1ccc(C(=O)O)cc1OC(F)(F)F)cn2-c1cnccc1O` [P-0252, 4-(5-(3,5-dimethylisoxazol-4-yl)-1-(4-hydroxypyridin-3-yl)-1H-pyrrolo[2,3-b]pyridin-3-yl)-3-(trifluoromethoxy)benzoic acid]: the IC50 lay within 0.0001 to 1 µM.

For `Cc1noc(C)c1-c1cnc2c(c1)c(-c1ccc(C(=O)O)cc1OC(F)(F)F)cn2-c1ccncc1Cl` [P-0253, 4-(1-(3-chloropyridin-4-yl)-5-(3,5-dimethylisoxazol-4-yl)-1H-pyrrolo[2,3-b]pyridin-3-yl)-3-(trifluoromethoxy)benzoic acid], the IC50 was in the range of 0.0001 to 1 µM.

For `Cc1noc(C)c1-c1cnc2c(c1)c(-c1ccc(C(=O)O)cc1OC(F)(F)F)cn2-c1c(F)cccc1C#N` [P-0254, 4-(1-(2-cyano-6-fluorophenyl)-5-(3,5-dimethylisoxazol-4-yl)-1H-pyrrolo[2,3-b]pyridin-3-yl)-3-(trifluoromethoxy)benzoic acid], the IC50 lay in the range of 0.0001 to 1 µM.

Take `COc1cc(C(=O)O)cc(C)c1-c1cn(-c2ccccc2)c2ncc(-c3c(C)noc3C)cc12` [P-0255, 4-(5-(3,5-dimethylisoxazol-4-yl)-1-phenyl-1H-pyrrolo[2,3-b]pyridin-3-yl)-3-methoxy-5-methylbenzoic acid]: the IC50 was in the range of 0.0001 to 1 µM.

Turning to `Cc1noc(C)c1-c1cnc2c(-c3ccc(C(=O)O)cc3C#N)c(C(F)(F)F)n([C@@H](C)c3ccccn3)c2c1` [P-0256, (S)-3-cyano-4-(6-(3,5-dimethylisoxazol-4-yl)-1-(1-(pyridin-2-yl)ethyl)-2-(trifluoromethyl)-1H-pyrrolo[3,2-b]pyridin-3-yl)benzoic acid], the IC50 lay within 0.0001 to 1 µM.

Regarding `Cc1noc(C)c1-c1cnc2c(-c3cc(C(=O)O)ccc3Cl)c(C(F)(F)F)n([C@@H](C)c3ccccn3)c2c1` [P-0257, (S)-4-chloro-3-(6-(3,5-dimethylisoxazol-4-yl)-1-(1-(pyridin-2-yl)ethyl)-2-(trifluoromethyl)-1H-pyrrolo[3,2-b]pyridin-3-yl)benzoic acid], the IC50 fell in the range of 0.0001 to 1 µM.

`CCOc1cc(C(=O)O)cc(OCC)c1-n1cc(-c2cnn(CS(C)(=O)=O)c2)c2ncc(-c3c(C)noc3C)cc21` [P-0258, 4-(6-(3,5-dimethylisoxazol-4-yl)-3-(1-((methylsulfonyl)methyl)-1H-pyrazol-4-yl)-1H-pyrrolo[3,2-b]pyridin-1-yl)-3,5-diethoxybenzoic acid]: the IC50 was 0.0001 to 1 µM.

With `CCOc1cc(C(=O)O)cc(OCC)c1-n1cc(-c2cn(C(C)C)nc2C)c2ncc(-c3c(C)noc3C)cc21` [P-0259, 4-(6-(3,5-dimethylisoxazol-4-yl)-3-(1-isopropyl-3-methyl-1H-pyrazol-4-yl)-1H-pyrrolo[3,2-b]pyridin-1-yl)-3,5-diethoxybenzoic acid], the IC50 lay in the range of 0.0001 to 1 µM.

On to `CCOc1cc(C(=O)O)cc(OCC)c1-n1cc(-c2cnn(CC(C)(C)O)c2)c2ncc(-c3c(C)noc3C)cc21` [P-0260, 4-(6-(3,5-dimethylisoxazol-4-yl)-3-(1-(2-hydroxy-2-methylpropyl)-1H-pyrazol-4-yl)-1H-pyrrolo[3,2-b]pyridin-1-yl)-3,5-diethoxybenzoic acid], for which the IC50 fell in the range of 0.0001 to 1 µM.

As for `CCOc1cc(C(=O)O)cc(OCC)c1-n1cc(-c2cnn(C(F)F)c2)c2ncc(-c3c(C)noc3C)cc21` [P-0261, 4-(3-(1-(difluoromethyl)-1H-pyrazol-4-yl)-6-(3,5-dimethylisoxazol-4-yl)-1H-pyrrolo[3,2-b]pyridin-1-yl)-3,5-diethoxybenzoic acid], the IC50 is 0.0001 to 1 µM.

For `CCOc1cc(C(=O)O)cc(OCC)c1-n1cc(-c2cnn(CCN(C)C)c2)c2ncc(-c3c(C)noc3C)cc21` [P-0262, 4-(3-(1-(2-(dimethylamino)ethyl)-1H-pyrazol-4-yl)-6-(3,5-dimethylisoxazol-4-yl)-1H-pyrrolo[3,2-b]pyridin-1-yl)-3,5-diethoxybenzoic acid], the IC50 was in the range of 0.0001 to 1 µM.

As for `CCOc1cc(C(=O)O)cc(OCC)c1-n1cc(-c2cn(C)nc2C)c2ncc(-c3c(C)noc3C)cc21` [P-0263, 4-(3-(1,3-dimethyl-1H-pyrazol-4-yl)-6-(3,5-dimethylisoxazol-4-yl)-1H-pyrrolo[3,2-b]pyridin-1-yl)-3,5-diethoxybenzoic acid], the IC50 was 0.0001 to 1 µM.

Take `CCOc1cc(C(=O)O)cc(OCC)c1-n1cc(-c2cnn(CC3CC3)c2)c2ncc(-c3c(C)noc3C)cc21` [P-0264, 4-(3-(1-(cyclopropylmethyl)-1H-pyrazol-4-yl)-6-(3,5-dimethylisoxazol-4-yl)-1H-pyrrolo[3,2-b]pyridin-1-yl)-3,5-diethoxybenzoic acid]: the IC50 fell in the range of 0.0001 to 1 µM.

Take `CCOc1cc(C(=O)O)cc(OCC)c1-n1cc(-c2cnn(C3CC3)c2)c2ncc(-c3c(C)noc3C)cc21` [P-0265, 4-(3-(1-cyclopropyl-1H-pyrazol-4-yl)-6-(3,5-dimethylisoxazol-4-yl)-1H-pyrrolo[3,2-b]pyridin-1-yl)-3,5-diethoxybenzoic acid]: the IC50 was 0.0001 to 1 µM.

With `CCOc1cc(C(=O)O)cc(OCC)c1-n1cc(-c2cnn(CCC#N)c2)c2ncc(-c3c(C)noc3C)cc21` [P-0266, 4-(3-(1-(2-cyanoethyl)-1H-pyrazol-4-yl)-6-(3,5-dimethylisoxazol-4-yl)-1H-pyrrolo[3,2-b]pyridin-1-yl)-3,5-diethoxybenzoic acid], the 50% inhibitory concentration (IC50) was 0.0001 to 1 µM.

Regarding `CCOc1cc(C(=O)O)cc(OCC)c1-n1cc(-c2cnn(CC(=O)N(C)C)c2)c2ncc(-c3c(C)noc3C)cc21` [P-0267, 4-(3-(1-(2-(dimethylamino)-2-oxoethyl)-1H-pyrazol-4-yl)-6-(3,5-dimethylisoxazol-4-yl)-1H-pyrrolo[3,2-b]pyridin-1-yl)-3,5-diethoxybenzoic acid], the IC50 is 0.0001 to 1 µM.

`Cc1noc(C)c1-c1cnc2c(c1)c(-c1cc(C(=O)O)ccc1OC(F)(F)F)cn2-c1ccc(F)cc1F` [P-0268, 3-(1-(2,4-difluorophenyl)-5-(3,5-dimethylisoxazol-4-yl)-1H-pyrrolo[2,3-b]pyridin-3-yl)-4-(trifluoromethoxy)benzoic acid]: the IC50 lay within 0.0001 to 1 µM.

For `Cc1noc(C)c1-c1cnc2c(-c3ccc(F)cc3F)cn(-c3c(OC(C)C)cc(C(=O)O)cc3OC(C)C)c2c1` [P-0269, 4-(3-(2,4-difluorophenyl)-6-(3,5-dimethylisoxazol-4-yl)-1H-pyrrolo[3,2-b]pyridin-1-yl)-3,5-diisopropoxybenzoic acid], the IC50 is 0.0001 to 1 µM.

With `CCOc1cc(C(=O)O)cc(OCC)c1-n1cc(CC2CCC2)c2ncc(-n3c(C)nnc3C)cc21` [P-0270, 4-(3-(cyclobutylmethyl)-6-(3,5-dimethyl-4H-1,2,4-triazol-4-yl)-1H-pyrrolo[3,2-b]pyridin-1-yl)-3,5-diethoxybenzoic acid], the IC50 was in the range of 1 to 8 µM.

Take `CCOc1cc(C(=O)O)cc(OCC)c1-n1cc(C2CCC(F)(F)CC2)c2ncc(-c3c(C)noc3C)cc21` [P-0271, 4-(3-(4,4-difluorocyclohexyl)-6-(3,5-dimethylisoxazol-4-yl)-1H-pyrrolo[3,2-b]pyridin-1-yl)-3,5-diethoxybenzoic acid]: the IC50 lay in the range of 0.0001 to 1 µM.

Turning to `Cc1noc(C)c1-c1cnc2c(c1)c(-c1cnn(CC(=O)O)c1)cn2-c1ncccc1C#CC1CC1` [P-0272, 2-(4-(1-(3-(cyclopropylethynyl)pyridin-2-yl)-5-(3,5-dimethylisoxazol-4-yl)-1H-pyrrolo[2,3-b]pyridin-3-yl)-1H-pyrazol-1-yl)acetic acid], the IC50 was in the range of 0.0001 to 1 µM.

Turning to `Cc1noc(C)c1-c1cnc2c(c1)c(-c1ccc(C(=O)O)cc1OC(F)F)cn2-c1ccccc1` [P-0273, 3-(difluoromethoxy)-4-(5-(3,5-dimethylisoxazol-4-yl)-1-phenyl-1H-pyrrolo[2,3-b]pyridin-3-yl)benzoic acid], the IC50 was in the range of 0.0001 to 1 µM.

For the molecule `Cc1noc(C)c1-c1cnc2c(-c3ccccc3)cn(-c3cc(C(=O)O)ccc3OC(F)(F)F)c2c1` [P-0274, 3-(6-(3,5-dimethylisoxazol-4-yl)-3-phenyl-1H-pyrrolo[3,2-b]pyridin-1-yl)-4-(trifluoromethoxy)benzoic acid], the IC50 is 0.0001 to 1 µM.

`Cc1noc(C)c1-c1cnc2c(c1)c(-c1ccc(C(=O)O)cc1OC(C)C)cn2-c1ccccc1` [P-0275, 4-(5-(3,5-dimethylisoxazol-4-yl)-1-phenyl-1H-pyrrolo[2,3-b]pyridin-3-yl)-3-isopropoxybenzoic acid]: the IC50 lay in the range of 0.0001 to 1 µM.

With `Cc1noc(C)c1-c1cnc2c(c1)c(-c1ccc(C(=O)O)cc1OC1CCC1)cn2-c1ccccc1` [P-0276, 3-cyclobutoxy-4-(5-(3,5-dimethylisoxazol-4-yl)-1-phenyl-1H-pyrrolo[2,3-b]pyridin-3-yl)benzoic acid], the IC50 lay within 0.0001 to 1 µM.
